Key:
DU145 cells = assay: Antiproliferative assay in DU145 cells, WST-1 cell proliferation assay, 96 hours (GI50); assay type: cell-based; details: Homo sapiens, DU-145, 96 hours post-treatment
Method in brief: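 DU145 cells seeded at 5000 cells/well, treated with […] compound or vehicle for 96 h. Viability read by WST-1, expressed as percent of mean control, GI50 derived; triplicate experiments.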

Row | SMILES | GI50 (DU145 cells; triplicate) [µM] | melting point | GI50 (DU145 cells; 50% growth inhibition) [µM]
1 | COc1cc2c(cc1O)CCN(Cc1cccc(C#N)c1)C2 [compound 64, 2-(3-Cyanobenzyl)-6-hydroxy-7-methoxy-1,2,3,4-tetrahydroisoquinoline] | > 100 | 113 to 155 °C | 
2 | COc1cccc(S(=O)(=O)N2CCc3cc(OCc4ccccc4)c(OC)cc3C2)c1 [compound 169, 6-Benzyloxy-7-methoxy-2-(3-methoxy-benzenesulfonyl)-1,2,3,4-tetrahydroisoquinoline] | > 100 | 124 to 125 °C | 
3 | COc1cc2c(cc1O)CCN(Cc1cc(OC)c(OC)c(OC)c1)C2=O [compound 163, 6-hydroxy-7-methoxy-2-(3,4,5-trimethoxybenzyl)-3,4-dihydro-2H-isoquinolin-1-one] | > 100 | 168 to 169 °C | 
4 | COc1cc2c(cc1O)CCN(C(=O)c1ccccc1OC)C2 [compound 115, 6-Hydroxy-7-methoxy-2-(2-methoxybenzoyl)-1,2,3,4-tetrahydroisoquinoline] | 50 to 100 | 176 to 177 °C | 
5 | COc1cc2c(cc1O)CC(C)(C)N(C(=O)c1cc(OC)c(OC)c(OC)c1)C2 [compound 234, (6-Hydroxy-7-methoxy-3,3-dimethyl-3,4-dihydro-1H-isoquinolin-2-yl)-(3,4,5-trimethoxy-phenyl)-methanone] |  | 159 to 162 °C | > 100
6 | COc1cc2c(cc1O)CCN(Cc1ccccc1O)C2 [compound 69, 2-(2-Hydroxybenzyl)-6-hydroxy-7-methoxy-1,2,3,4-tetrahydroisoquinoline] | > 100 | 151.9 to 152.6 °C | 
7 | COc1cccc(COc2cc3c(cc2OC)C(=O)N(Cc2cccc(OC)c2)CC3)c1 [compound 155, 7-Methoxy-2-(3-methoxybenzyl)-6-(3-methoxybenzyloxy)-3,4-dihydro-2H-isoquinolin-1-one] | > 100 | 85 to 86 °C | 
8 | COc1cc2c(cc1OCc1ccccc1)CCN(C(=O)c1ccccc1OC)C2=O [compound 130, 6-Benzyloxy-7-methoxy-2-(2-methoxybenzoyl)-3,4-dihydro-2H-isoquinoline-1-one] | > 100 | 163 to 164 °C | 
9 | COc1cc(CN2CCc3cc(O)c(OC)cc3C2=O)cc(OC)c1 [compound 162, 2-(3,5-dimethoxybenzyl)-6-hydroxy-7-methoxy-3,4-dihydro-2H-isoquinolin-1-one] | > 100 | 166 to 167 °C | 
10 | COc1ccc(C(=O)N2CCc3cc(OCc4ccccc4)c(OC)cc3C2=O)cc1 [compound 128, 6-Benzyloxy-7-methoxy-2-(4-methoxybenzoyl)-3,4-dihydro-2H-isoquinolin-1-one] | > 100 | 151 to 152 °C | 
11 | COc1cc(OC)c(OC)cc1CN1CCc2cc(OCc3ccccc3)c(OC)cc2C1 [compound 17, 6-Benzyloxy-7-methoxy-2-(2,4,5-trimethoxybenzyl)-1,2,3,4-tetrahydroisoquinoline] | 10 to 50 | 110 to 111 °C | 
12 | COc1cc2c(cc1OCc1ccccc1)CCN(Cc1cc(OC)c(OC)c(OC)c1)C2 [compound 19, 6-Benzyloxy-7-methoxy-2-(3,4,5-trimethoxybenzyl)-1,2,3,4-tetrahydroisoquinoline] | 10 to 50 | 144 to 145 °C | 
13 | COc1cc2c(cc1OCc1ccccc1)CCN(C(=O)c1cccc(C#N)c1)C2=O [compound 135, 6-Benzyloxy-2-(3-cyanobenzoyl)-7-methoxy-3,4-dihydro-2H-isoquinoline-1-one] | > 100 | 195 to 196 °C | 
14 | COc1cc2c(cc1O)CCN(Cc1ccc(OC)c(OC)c1)C2 [compound 57, 6-Hydroxy-7-methoxy-2-(3,4-dimethoxybenzyl)-1,2,3,4-tetrahydroisoquinoline] | > 100 | 146 to 147 °C | 
15 | COc1cccc(CN2CCc3cc(O)c(OC)cc3C2=O)c1 [compound 160, 6-Hydroxy-7-methoxy-2-(3-methoxy-benzyl)-3,4-dihydro-2H-isoquinolin-1-one] | > 100 | 181 to 182 °C | 
16 | COc1cc(CN2CCc3cc(OCc4ccccc4)c(OC)cc3C2=O)cc(OC)c1 [compound 157, 6-(Benzyloxy)-2-(3,5-dimethoxybenzyl)-7-methoxy-3,4-dihydro-2H-isoquinolin-1-one] | > 100 | 82 to 83 °C | 
17 | COc1cc2c(cc1O)CCN(S(=O)(=O)c1ccccc1OC)C2 [compound 184, 6-Hydroxy-7-methoxy-2-(2-methoxy-benzenesulfonyl)-1,2,3,4-tetrahydroisoquinoline] | > 100 | 140 to 142 °C | 
18 | COc1cc2c(cc1OCc1ccccc1)CCN(Cc1cccc(N)c1)C2 [compound 34, 2-(3-Aminobenzyl)-6-(benzyloxy)-7-methoxy-1,2,3,4-tetrahydroisoquinoline] | > 100 | 114 to 115 °C | 
19 | COc1cc2c(cc1OCc1ccccc1)CCN(Cc1cccc(C)c1)C2 [compound 7, 6-Benzyloxy-7-methoxy-2-(3-methylbenzyl)-1,2,3,4-tetrahydroisoquinoline] | > 100 | 81 to 82 °C | 

Row | SMILES | GI50 (DU145 cells; triplicate) [µM] | melting point | GI50 (DU145 cells; 50% growth inhibition) [µM]
20 | COc1cc2c(cc1OCc1ccccc1)CCN(S(=O)(=O)c1cccc(C(F)(F)F)c1)C2 [compound 172, 6-Benzyloxy-7-methoxy-2-(3-trifluoromethyl-benzenesulfonyl)-1,2,3,4-tetrahydroisoquinoline] | > 100 | 136 to 138.5 °C | 
21 | COc1ccc(S(=O)(=O)N2CCc3cc(O)c(OC)cc3C2)cc1 [compound 185, 6-Hydroxy-7-methoxy-2-(4-methoxy-benzenesulfonyl)-1,2,3,4-tetrahydroisoquinoline] | > 100 | 147 to 149 °C | 
22 | COc1cc2c(cc1O)CCN(Cc1cc(OC)c(OC)cc1OC)C2 [compound 59, 6-Hydroxy-7-methoxy-2-(2,4,5-trimethoxybenzyl)-1,2,3,4-tetrahydroisoquinoline] | < 10 | 152 to 153 °C | 
23 | COc1ccccc1CN1CCc2cc(OCc3ccccc3)c(OC)cc2C1 [compound 5, 6-Benzyloxy-7-methoxy-2-(2-methoxybenzyl)-1,2,3,4-tetrahydroisoquinoline] | 10 to 50 | 85 to 86 °C | 
24 | COc1cc2c(cc1OCc1ccccc1)CCN(Cc1ccccc1)C2 [compound 2, 2-Benzyl-6-benzyloxy-7-methoxy-1,2,3,4-tetrahydroisoquinoline] | 50 to 100 | 97 to 98 °C | 
25 | COc1cc2c(cc1O)CCN(S(=O)(=O)c1cccc(Cl)c1)C2=O [compound 203, 2-(3-Chloro-benzenesulfonyl)-6-hydroxy-7-methoxy-3,4-dihydro-2H-isoquinolin-1-one] |  | 178 to 181 °C | > 100
26 | COc1cc2c(cc1O)CCN(Cc1cccc(OC(C)C)c1)C2 [compound 61, 2-(3-Isopropoxybenzyl)-6-hydroxy-7-methoxy-1,2,3,4-tetrahydroisoquinoline] | > 100 | 143 to 146 °C | 
27 | COc1cc2c(cc1O)CCN(Cc1ccccc1OC)C2 [compound 41, 6-Hydroxy-7-methoxy-2-(2-methoxybenzyl)-1,2,3,4-tetrahydroisoquinoline] | > 100 | 128 to 129 °C | 
28 | COc1cc2c(cc1O)CCN(C(=O)c1ccc(OC)c(OC)c1)C2 [compound 118, 2-(3,4-Dimethoxybenzoyl)-6-hydroxy-7-methoxy-1,2,3,4-tetrahydroisoquinoline] | > 100 | 132 to 133 °C | 
29 | COc1ccc(C(=O)N2CCc3cc(O)c(OC)cc3C2=O)cc1 [compound 140, 6-Hydroxy-7-methoxy-2-(4-methoxybenzoyl)-3,4-dihydro-2H-isoquinolin-1-one] | > 100 | 224 to 225 °C | 
30 | CCOc1cccc(CN2CCc3cc(O)c(OC)cc3C2)c1 [compound 63, 2-(3-Ethoxybenzyl)-6-hydroxy-7-methoxy-1,2,3,4-tetrahydroisoquinoline] | > 100 | 105 to 106 °C | 
31 | COc1cc2c(cc1O)CCN(C(=O)c1ccc(C#N)cc1)C2=O [compound 145, 2-(4-Cyanobenzoyl)-6-hydroxy-7-methoxy-3,4-dihydro-2H-isoquinoline-1-one] | > 100 | 198 to 199 °C | 
32 | COc1cccc(C(=O)N2CCc3cc(O)c(OC)cc3C2=O)c1 [compound 139, 6-Hydroxy-7-methoxy-2-(3-methoxybenzoyl)-3,4-dihydro-2H-isoquinoline-1-one] | < 10 | 198 to 199 °C | 
33 | COc1cc(OC)cc(C(=O)N2Cc3cc(OC)c(OS(N)(=O)=O)cc3CC2(C)C)c1 [compound 237, Sulfamic acid 2-(3,5-dimethoxy-benzoyl)-7-methoxy-3,3-dimethyl-1,2,3,4-tetrahydro-isoquinolin-6-yl ester] |  | > 180 °C (dec.) | > 100
34 | COc1cccc(S(=O)(=O)N2CCc3cc(O)c(OC)cc3C2)c1 [compound 178, 6-Hydroxy-7-methoxy-2-(3-methoxy-benzenesulfonyl)-1,2,3,4-tetrahydroisoquinoline] | > 100 | 168 to 170 °C | 
35 | COc1cc2c(cc1O)CCN(Cc1cccc(OC(F)(F)F)c1)C2 [compound 68, 6-Hydroxy-7-methoxy-2-(3-trifluoromethoxybenzyl)-1,2,3,4-tetrahydroisoquinoline] | 50 to 100 | 122 to 124 °C | 
36 | COc1ccc(C(=O)N2CCc3cc(O)c(OC)cc3C2)cc1 [compound 117, 6-Hydroxy-7-methoxy-2-(4-methoxybenzoyl)-1,2,3,4-tetrahydroisoquinoline] | > 100 | 173 to 174 °C | 
37 | COc1cc(CN2Cc3cc(OC)c(O)cc3CC2C)cc(OC)c1 (centres unmarked) [compound 218, 2-(3,5-Dimethoxybenzyl)-1,2,3,4-tetrahydro-7-methoxy-3-methylisoquinolin-6-ol] |  | 155 to 158 °C | 10 to 50
